# From ChEMBL document CHEMBL5465560, “Selectivity Literature for EUbOPEN Chemogenomic Library” (2024)
# What was measured:
# [1] = molecular target: Serine/threonine-protein kinase 38-like (Homo sapiens) (UniProt Q9Y2H1); assay: Selectivity interaction (Kinase panel (DSF assay)) EUB0001559a STK38L
# [2] = molecular target: Death-associated protein kinase 2 (Homo sapiens) (UniProt Q9UIK4); assay: Selectivity interaction (KinomeScan (DiscoverX)) EUB0000045b DAPK2
# [3] = molecular target: T1, Mitogen-activated protein kinase kinase kinase 5 (Homo sapiens) (UniProt Q99683); assay: Selectivity interaction (ActivX KiNativ screen (ex vivo kinase selectivity in human PBMCs)) EUB0001619a MAP3K5; type: cell-based; conditions: PBMC, at 1 µM
# T1 sequence (whole entry): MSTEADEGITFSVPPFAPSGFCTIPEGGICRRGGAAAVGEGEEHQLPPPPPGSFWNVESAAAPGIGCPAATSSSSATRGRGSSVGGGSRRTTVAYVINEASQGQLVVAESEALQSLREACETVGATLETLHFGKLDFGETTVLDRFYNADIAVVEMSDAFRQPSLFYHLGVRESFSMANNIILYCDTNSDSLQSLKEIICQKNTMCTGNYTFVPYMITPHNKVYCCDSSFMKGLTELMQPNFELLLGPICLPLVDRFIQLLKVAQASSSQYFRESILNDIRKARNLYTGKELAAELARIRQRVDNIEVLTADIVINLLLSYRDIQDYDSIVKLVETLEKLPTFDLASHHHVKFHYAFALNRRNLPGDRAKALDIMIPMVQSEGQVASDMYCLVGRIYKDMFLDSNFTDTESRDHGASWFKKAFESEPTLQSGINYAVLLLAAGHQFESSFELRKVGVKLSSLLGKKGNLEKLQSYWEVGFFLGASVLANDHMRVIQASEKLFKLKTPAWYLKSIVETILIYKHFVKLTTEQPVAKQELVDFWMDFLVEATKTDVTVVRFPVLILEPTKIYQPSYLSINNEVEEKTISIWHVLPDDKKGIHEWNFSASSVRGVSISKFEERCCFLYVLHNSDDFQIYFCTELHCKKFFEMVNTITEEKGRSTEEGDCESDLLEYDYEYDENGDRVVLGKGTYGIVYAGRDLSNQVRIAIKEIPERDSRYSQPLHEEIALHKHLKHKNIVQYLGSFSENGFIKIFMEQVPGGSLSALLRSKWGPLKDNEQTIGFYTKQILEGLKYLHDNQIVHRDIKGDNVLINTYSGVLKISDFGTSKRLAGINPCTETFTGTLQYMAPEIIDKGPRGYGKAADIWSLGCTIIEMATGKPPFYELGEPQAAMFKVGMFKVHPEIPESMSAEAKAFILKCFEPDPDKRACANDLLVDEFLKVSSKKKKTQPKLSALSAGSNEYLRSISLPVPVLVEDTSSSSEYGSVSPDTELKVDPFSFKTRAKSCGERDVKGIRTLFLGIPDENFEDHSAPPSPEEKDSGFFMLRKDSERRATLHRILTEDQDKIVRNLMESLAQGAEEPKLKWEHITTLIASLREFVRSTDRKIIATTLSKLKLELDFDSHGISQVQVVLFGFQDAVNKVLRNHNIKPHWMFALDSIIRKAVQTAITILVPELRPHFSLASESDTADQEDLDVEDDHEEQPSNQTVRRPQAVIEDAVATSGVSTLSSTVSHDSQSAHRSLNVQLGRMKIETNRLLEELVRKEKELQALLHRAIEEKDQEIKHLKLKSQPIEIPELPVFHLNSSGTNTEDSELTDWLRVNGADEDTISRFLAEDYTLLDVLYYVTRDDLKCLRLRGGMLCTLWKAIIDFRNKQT
# [4] = molecular target: T2, Serine/threonine-protein kinase TAO3 (Homo sapiens) (UniProt Q9H2K8); assay: Selectivity interaction (KinomeScan (DiscoverX)) EUB0001619a TAOK3; conditions: at 1 µM
# T2 sequence (whole entry): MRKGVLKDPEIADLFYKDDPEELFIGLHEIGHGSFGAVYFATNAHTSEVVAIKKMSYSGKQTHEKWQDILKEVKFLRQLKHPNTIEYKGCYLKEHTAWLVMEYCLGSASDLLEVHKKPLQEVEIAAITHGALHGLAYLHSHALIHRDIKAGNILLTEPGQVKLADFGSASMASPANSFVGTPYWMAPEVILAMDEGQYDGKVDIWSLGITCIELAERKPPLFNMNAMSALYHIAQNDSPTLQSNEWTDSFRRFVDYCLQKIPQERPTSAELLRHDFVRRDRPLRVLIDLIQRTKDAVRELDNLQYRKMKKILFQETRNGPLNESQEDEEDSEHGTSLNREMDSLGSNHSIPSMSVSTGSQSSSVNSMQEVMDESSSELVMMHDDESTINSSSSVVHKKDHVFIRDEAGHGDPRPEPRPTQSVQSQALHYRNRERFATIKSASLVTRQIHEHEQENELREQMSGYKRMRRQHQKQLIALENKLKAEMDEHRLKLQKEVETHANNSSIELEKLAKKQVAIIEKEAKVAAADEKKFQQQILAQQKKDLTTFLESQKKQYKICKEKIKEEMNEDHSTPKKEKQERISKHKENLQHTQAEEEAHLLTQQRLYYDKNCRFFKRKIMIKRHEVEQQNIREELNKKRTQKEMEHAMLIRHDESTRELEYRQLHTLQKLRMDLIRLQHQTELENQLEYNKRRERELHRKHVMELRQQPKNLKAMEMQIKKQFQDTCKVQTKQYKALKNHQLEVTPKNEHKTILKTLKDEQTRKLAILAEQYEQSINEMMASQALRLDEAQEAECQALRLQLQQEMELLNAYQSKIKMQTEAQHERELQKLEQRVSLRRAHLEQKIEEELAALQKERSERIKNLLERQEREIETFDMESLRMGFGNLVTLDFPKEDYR
# [5] = molecular target: T3, Serine/threonine-protein kinase 17A (Homo sapiens) (UniProt Q9UEE5); assay: Selectivity interaction (KinomeScan (DiscoverX)) EUB0000655a STK17A; conditions: at 10 µM
# T3 sequence (whole entry): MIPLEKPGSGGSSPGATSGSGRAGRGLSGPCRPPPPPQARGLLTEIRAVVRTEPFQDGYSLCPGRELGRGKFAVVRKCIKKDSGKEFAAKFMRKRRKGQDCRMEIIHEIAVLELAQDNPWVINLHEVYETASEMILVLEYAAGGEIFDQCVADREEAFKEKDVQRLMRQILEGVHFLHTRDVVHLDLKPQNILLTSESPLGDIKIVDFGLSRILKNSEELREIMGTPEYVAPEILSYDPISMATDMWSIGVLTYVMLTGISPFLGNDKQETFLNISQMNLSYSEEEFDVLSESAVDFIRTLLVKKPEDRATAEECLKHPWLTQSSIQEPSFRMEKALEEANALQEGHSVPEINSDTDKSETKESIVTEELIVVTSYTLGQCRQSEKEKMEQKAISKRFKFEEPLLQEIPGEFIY
# [6] = system: Tyrosine-protein kinase ABL1 (Homo sapiens), P00519 [F317I]; assay: Selectivity interaction (Ambit KINOMEscan and KiNATiv profiling in Jurkat cells) EUB0000090b ABL1; type: cell-based; conditions: at 1 µM
# Tyrosine-protein kinase ABL1 (Homo sapiens), P00519 [F317I], sequence (P00519 whole entry F317I): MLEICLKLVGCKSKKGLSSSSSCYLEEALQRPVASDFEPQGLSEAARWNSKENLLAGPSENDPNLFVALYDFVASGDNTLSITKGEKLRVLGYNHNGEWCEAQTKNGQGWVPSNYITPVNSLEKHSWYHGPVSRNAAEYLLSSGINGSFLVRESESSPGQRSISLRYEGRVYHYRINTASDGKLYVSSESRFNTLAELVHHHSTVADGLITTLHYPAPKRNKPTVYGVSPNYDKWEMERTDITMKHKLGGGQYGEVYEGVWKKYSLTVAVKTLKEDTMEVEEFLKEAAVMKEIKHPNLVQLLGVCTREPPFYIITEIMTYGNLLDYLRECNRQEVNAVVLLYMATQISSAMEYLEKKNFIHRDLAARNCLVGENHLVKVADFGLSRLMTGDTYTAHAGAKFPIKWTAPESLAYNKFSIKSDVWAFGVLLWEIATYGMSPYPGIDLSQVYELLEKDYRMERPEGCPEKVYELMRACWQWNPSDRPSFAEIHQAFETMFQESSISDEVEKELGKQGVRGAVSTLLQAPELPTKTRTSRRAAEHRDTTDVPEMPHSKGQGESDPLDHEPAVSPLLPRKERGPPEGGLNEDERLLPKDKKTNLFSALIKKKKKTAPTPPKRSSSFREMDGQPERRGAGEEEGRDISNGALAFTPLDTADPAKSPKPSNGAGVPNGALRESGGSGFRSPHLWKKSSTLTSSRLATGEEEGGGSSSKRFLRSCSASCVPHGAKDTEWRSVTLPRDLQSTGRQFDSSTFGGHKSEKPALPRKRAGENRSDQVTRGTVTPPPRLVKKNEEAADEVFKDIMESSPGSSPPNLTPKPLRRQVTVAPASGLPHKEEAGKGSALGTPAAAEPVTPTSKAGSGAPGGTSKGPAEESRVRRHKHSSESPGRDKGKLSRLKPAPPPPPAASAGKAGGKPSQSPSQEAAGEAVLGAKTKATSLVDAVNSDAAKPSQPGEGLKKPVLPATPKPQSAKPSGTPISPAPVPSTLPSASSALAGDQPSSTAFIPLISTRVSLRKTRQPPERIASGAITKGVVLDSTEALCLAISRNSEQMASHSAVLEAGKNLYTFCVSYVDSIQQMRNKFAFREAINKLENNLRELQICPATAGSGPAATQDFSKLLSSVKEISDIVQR
# Death-associated protein kinase 2 (Homo sapiens), sequence (Q9UIK4 whole entry, looked up): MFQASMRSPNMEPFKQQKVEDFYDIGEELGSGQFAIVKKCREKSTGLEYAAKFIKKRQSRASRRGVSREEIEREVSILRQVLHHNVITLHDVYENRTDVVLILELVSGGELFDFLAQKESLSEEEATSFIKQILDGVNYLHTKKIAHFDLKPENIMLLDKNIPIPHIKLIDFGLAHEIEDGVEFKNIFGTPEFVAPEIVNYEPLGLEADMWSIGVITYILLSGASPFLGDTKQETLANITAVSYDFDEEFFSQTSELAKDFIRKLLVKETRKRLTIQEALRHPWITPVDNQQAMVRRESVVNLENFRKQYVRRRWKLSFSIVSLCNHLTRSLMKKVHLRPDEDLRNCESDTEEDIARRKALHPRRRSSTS
# Serine/threonine-protein kinase 38-like (Homo sapiens), sequence (Q9Y2H1 2-464 limits assumed): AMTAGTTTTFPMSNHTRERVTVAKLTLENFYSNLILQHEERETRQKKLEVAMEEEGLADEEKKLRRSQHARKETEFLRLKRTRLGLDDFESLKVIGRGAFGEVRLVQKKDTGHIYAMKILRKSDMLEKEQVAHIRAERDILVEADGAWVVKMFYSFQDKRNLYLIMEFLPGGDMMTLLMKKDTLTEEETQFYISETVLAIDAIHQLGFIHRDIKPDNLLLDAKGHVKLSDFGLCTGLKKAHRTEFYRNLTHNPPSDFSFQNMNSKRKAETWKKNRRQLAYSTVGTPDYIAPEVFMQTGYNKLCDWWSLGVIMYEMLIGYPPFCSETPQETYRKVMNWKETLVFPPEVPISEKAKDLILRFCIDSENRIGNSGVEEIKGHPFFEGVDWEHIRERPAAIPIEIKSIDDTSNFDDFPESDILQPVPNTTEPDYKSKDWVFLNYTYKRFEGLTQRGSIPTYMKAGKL
structure (smiles),measurement,setting,value
CN(C(=O)c1cnn2cccnc12)c1cc2c(cc1N1CCOCC1)C(=O)N(C[C@@H](F)C(C)(C)O)C2,dTM,[1],0 K
C=CC(=O)Nc1cc(-n2c(=O)ccc3cnc4ccc(-c5ccc(NS(C)(=O)=O)cc5)cc4c32)ccc1C,% of control,[2]; at 1 µM,100%
same,% of control,[2]; at 10 µM,94%
N#Cc1cccc(-c2c[nH]c3ncnc(N4CCOCC4)c23)c1,% of inhibition,[3],21%
same,% of control,[4],36%
CN(C)CCOc1ccc(-c2nc(-c3ccncc3)c(-c3ccc4c(c3)CC/C4=N\O)[nH]2)cc1,% of control,[5],69%
CN(C)C/C=C/C(=O)Nc1ccc(C(=O)N2CCCC(Nc3ncc(Cl)c(-c4c[nH]c5ccccc45)n3)C2)cc1 (configuration not stated),% of control,[6],100%
